Measured values as given in patent US12685746B2, “Cyclodextrin derivatives in the treatment or prevention of lysosomal neurodegenerative diseases” (CYCLOLAB CYCLODEXTRIN RESEARCH AND DEVELOPMENT LABORATORY …, priority 2020, dated 2026).
“Also recorded” adds a separate entry of the source.

Assays:
[1] = test system: zebrafish model for Niemann Pick type C1 (U18666A administration); assay: Filipin staining of five day old zebrafish larvae pretreated with U18666A (cholesterol accumulation in the brain); type: in vivo, Danio rerio; details: for Reduction in U18666A induced cholesterol accumulation in the brain: result in words; for Heavy staining (number of larvae) / Light staining (number of larvae) / No staining (number of larvae): U18666A pretreated 5 dpf larvae; for No staining (number of larvae): fluorescence in head region; for Different from placebo: X2-test vs U18666A-placebo
Protocol: Several cyclodextrin derivatives were evaluated in a zebrafish model for Niemann Pick type C1 (U18666A administration). Cholesterol accumulation in the brain was quantified by filipin staining of Danio rerio Casper (albino strain) larvae. Results were compared with the reference compound Hydroxypropyl-β-cyclodextrin (HPBCD).
In this study the best performing Cyclodextrins were as follows: Heptakis(2,6-di-O-methyl)-beta cyclodextrin, Octakis(2,3,6-tri-O-methyl)-gamma cyclodextrin, Sualfadex sodium, Subetadex sodium Sugammadex sodium. Filipin staining of five day old zebrafish larvae (Danio rerio, Casper strain) pretreated with U18666A were studied.
Fertilized eggs were hatched and kept in an incubator at 28° C.
CDs were administered from Stock solutions (0.1%) in standard E3 medium. Preparation of E3 medium was as follows:
The stock solutions were diluted with E3. Compounds were administered in the swimming water. Each concentration was tested in 25 larvae.
Experimental compounds were tested at a 0.05% concentration. As reference Hydroxypropyl-β-cyclodextrin (Sigma) was tested at a 0.5% concentration.
Treated 5 dpf Casper larvae were fixed for 30 minutes in 4% paraformaldehyde. After washing (2 times) with PBS, they were stained for 30 minutes with 50 μg/mL filipin (Sigma) in PBS solution. Then larvae were washed (with PBS) twice.
Whole larvae were embedded and images were captured on a Dino-Lite Digital USB microscope for GFP/FITC recordings (AM4115T4). Images were evaluated by an independent assessor, unaware of the treatments. The assessor scored the fluorescence in the head region as none, light or heavy.
Data were analysed by means of X2-tests. All conditions were compared to the U18666A—placebo treatment group.
Fluorescence was measured as an index for the amount of filipin staining. The higher the filipin staining the more cholesterol accumulation there is in the brain. Individual larvae were scored (by a blinded assessor) as either heavy coloured, light coloured or not coloured at all.

[2] = Phase solubility study: interaction of cyclodextrins with unesterified cholesterol; type: physicochemical; details: 24 hours equilibration at 25±3° C.
Protocol: Phase solubility studies were performed in 5 ml solutions at room temperature, wherein cyclodextrin solutions of discrete concentrations were weighed and excess amount of cholesterol was added. After 24 hours equilibration time at 25±3° C. (using magnetic stirrer at 500 RPM), the dissolved equilibrium cholesterol concentrations were determined by HPLC after filtration through a syringe filter having polyethylene sulfone membrane of 0.45 micron nominal pore size. The experimentally determined cholesterol concentrations in the presence of different concentrations of HPBCD, Sualfadex sodium, Subetadex sodium and Sugammadex sodium are listed in Table 3.

[3] = test system: 5 dpf Danio rerio larvae treated with U18666A; assay: Mobility testing of U18666A-treated zebrafish larvae (DanioVision, distance moved); type: in vivo; details: U18666A 1 microg/ml 16 hours, then CD 24 hours (0.5-5%); result in words, values only in FIG. 1
Protocol: Danio rerio larvae (strain AB, Casper) 5 days post fertilization (dpf) at day of testing were treated with U18666A dissolved in standard E3 medium. Reversal of U18666A (1 microg/ml) effects on overall activity of 5 dpf Danio rerio larvae by different CDs at different concentrations (0.5-5%) were tested. Larvae were pretreated with U18666A for 16 hours and thereafter treated with CD for 24 hours. Statistical analyses were performed for the individual experiments with two way ANOVA's followed by Tukey post hoc tests (** p<0.01). CDs were dissolved in standard E3 medium.
DanioVision Observation Chamber which is a complete system, designed for the high-throughput testing of zebrafish larvae in 48-wells plates. It includes an observation chamber and renowned EthoVision XT video tracking software to quantify distance moved by the animals. The results are graphically represented (distance moved—in arbritrary unit) in FIG. 1.

[4] = literature studies; cited from earlier work
[5] = dose tested 0.05% in swimming water
[6] = dose tested 0.5% in swimming water

| Dissolved cholesterol concentration ([2]; CD concentration 5 w/w %) [mg/mL] | Dissolved cholesterol concentration ([2]; CD concentration 10 w/w %) [mg/mL] | Dissolved cholesterol concentration ([2]; CD concentration 15 w/w %) [mg/mL] | Compound | Reduction in U18666A induced cholesterol accumulation in the brain ([1]; 0.05%, sodium salt) | Heavy staining (number of larvae) [1, 5] | Light staining (number of larvae) [1, 5] | No staining (number of larvae) [1, 5] | Different from placebo ([1]; dose tested 0.05%) | Motoric activity of the test animals [3] | Reduction in U18666A induced cholesterol accumulation in the brain ([1]; 0.5%) | Heavy staining (number of larvae) [1, 6] | Light staining (number of larvae) [1, 6] | No staining (number of larvae) [1, 6] | Different from placebo ([1]; dose tested 0.5%) | Ototoxicity [4] | Reduction in U18666A induced cholesterol accumulation in the brain ([1]; 0.05%) |
| --- | --- | --- | --- | --- | --- | --- | --- | --- | --- | --- | --- | --- | --- | --- | --- | --- |
| 0.062 | 0.092 | 0.246 | 6A,6B,6C,6D,6E,7F,6G-Heptakis-S-(2-carboxyethyl)-6A,6B,6C,6D,6E,6F,6G-heptathio-beta-cyclodextrin sodium salt [Subetadex sodium] | significant cholesterol-accumulation hindering activity; also recorded: very strong reduction | 5 | 15 | 4 | *** (*** p<0.001) | improved motoric activity |  |  |  |  |  |  |  |
| 0.016 | 0.028 | 0.051 | O=C([O-])CCSC[C@H]1O[C@@H]2O[C@H]3[C@H](O)[C@@H](O)[C@@H](O[C@H]4[C@H](O)[C@@H](O)[C@@H](O[C@H]5[C@H](O)[C@@H](O)[C@@H](O[C@H]6[C@H](O)[C@@H](O)[C@@H](O[C@H]7[C@H](O)[C@@H](O)[C@@H](O[C@H]1[C@H](O)[C@H]2O)O[C@@H]7CSCCC(=O)[O-])O[C@@H]6CSCCC(=O)[O-])O[C@@H]5CSCCC(=O)[O-])O[C@@H]4CSCCC(=O)[O-])O[C@@H]3CSCCC(=O)[O-].[Na+].[Na+].[Na+].[Na+].[Na+].[Na+] [Sualfadex sodium, 6A,6B,6C,6D,6E,7F-Hexakis-S-(2-carboxyethyl)-6A,6B,6C,6D,6E,6F-hexathio-alpha-cyclodextrin sodium] |  | 4 | 16 | 4 | *** (*** p<0.001) | improved motoric activity |  |  |  |  |  |  | significant cholesterol-accumulation hindering activity; also recorded: very strong reduction |
| 0.056 | 0.062 | 0.150 | O=C([O-])CCSC[C@H]1O[C@@H]2O[C@H]3[C@H](O)[C@@H](O)[C@@H](O[C@H]4[C@H](O)[C@@H](O)[C@@H](O[C@H]5[C@H](O)[C@@H](O)[C@@H](O[C@H]6[C@H](O)[C@@H](O)[C@@H](O[C@H]7[C@H](O)[C@@H](O)[C@@H](O[C@H]8[C@H](O)[C@@H](O)[C@@H](O[C@H]9[C@H](O)C(O)[C@@H](O[C@H]1[C@H](O)[C@H]2O)O[C@@H]9CSCCC(=O)[O-])O[C@@H]8CSCCC(=O)[O-])O[C@@H]7CSCCC(=O)[O-])O[C@@H]6CSCCC(=O)[O-])O[C@@H]5CSCCC(=O)[O-])O[C@@H]4CSCCC(=O)[O-])O[C@@H]3CSCCC(=O)[O-].[Na+].[Na+].[Na+].[Na+].[Na+].[Na+].[Na+].[Na+] (stereo partly drawn) [Sugammadex sodium, 6A,6B,6C,6D,6E,7F,6G,6H-Octakis-S-(2-carboxyethyl)-6A,6B,6C,6D,6E,6F,6G,6H-octathio-gamma-cyclodextrin sodium salt] | significant cholesterol-accumulation hindering activity; also recorded: very strong reduction | 4 | 15 | 5 | *** (*** p<0.001) | improved motoric activity |  |  |  |  |  |  |  |

Continued, compound first:

| Compound | Dissolved cholesterol concentration ([2]; CD concentration 5 w/w %) [mg/mL] | Dissolved cholesterol concentration ([2]; CD concentration 10 w/w %) [mg/mL] | Dissolved cholesterol concentration ([2]; CD concentration 15 w/w %) [mg/mL] | Reduction in U18666A induced cholesterol accumulation in the brain ([1]; 0.05%, sodium salt) | Heavy staining (number of larvae) [1, 5] | Light staining (number of larvae) [1, 5] | No staining (number of larvae) [1, 5] | Different from placebo ([1]; dose tested 0.05%) | Motoric activity of the test animals [3] | Reduction in U18666A induced cholesterol accumulation in the brain ([1]; 0.5%) | Heavy staining (number of larvae) [1, 6] | Light staining (number of larvae) [1, 6] | No staining (number of larvae) [1, 6] | Different from placebo ([1]; dose tested 0.5%) | Ototoxicity [4] | Reduction in U18666A induced cholesterol accumulation in the brain ([1]; 0.05%) |
| --- | --- | --- | --- | --- | --- | --- | --- | --- | --- | --- | --- | --- | --- | --- | --- | --- |
| CC(O)COC[C@H]1O[C@@H]2O[C@H]3[C@H](O)[C@@H](O)[C@@H](O[C@H]4[C@H](O)[C@@H](O)[C@@H](O[C@H]5[C@H](O)[C@@H](O)[C@@H](O[C@H]6[C@H](O)[C@@H](O)[C@@H](O[C@H]7[C@H](O)[C@@H](O)[C@@H](O[C@H]8[C@H](O)[C@@H](O)[C@@H](O[C@H]1[C@H](O)[C@H]2O)O[C@@H]8COCC(C)O)O[C@@H]7COCC(C)O)O[C@@H]6COCC(C)O)O[C@@H]5COCC(C)O)O[C@@H]4COCC(C)O)O[C@@H]3COCC(C)O (stereo partly drawn) [HPBCD, Hydroxypropyl-β-cyclodextrin] | 0.28 | 0.98 | 2.06 |  |  |  |  |  |  | significantly reduced | 9 | 13 | 2 | * (* p<0.05) | ototoxic |  |
| COC[C@H]1O[C@@H]2O[C@H]3[C@H](O)[C@@H](OC)[C@@H](O[C@H]4[C@H](O)[C@@H](OC)[C@@H](O[C@H]5[C@H](O)[C@@H](OC)[C@@H](O[C@H]6[C@H](O)[C@@H](OC)[C@@H](O[C@H]7[C@H](O)[C@@H](OC)[C@@H](O[C@H]8[C@H](O)[C@@H](OC)[C@@H](O[C@H]1[C@H](O)[C@H]2OC)O[C@@H]8COC)O[C@@H]7COC)O[C@@H]6COC)O[C@@H]5COC)O[C@@H]4COC)O[C@@H]3COC [Heptakis(2,6-di-O-methyl)-beta cyclodextrin] |  |  |  |  | 13 | 9 | 1 |  |  |  |  |  |  |  |  | only a small, non-significant, reduction |
| COC[C@H]1O[C@H]2O[C@H]3[C@H](OC)[C@@H](OC)[C@H](O[C@H]4[C@H](OC)[C@@H](OC)[C@H](O[C@H]5[C@H](OC)[C@@H](OC)[C@H](O[C@H]6[C@H](OC)[C@@H](OC)[C@H](O[C@H]7[C@H](OC)[C@@H](OC)[C@H](O[C@H]8[C@H](OC)[C@@H](OC)[C@H](O[C@H]9[C@H](OC)[C@@H](OC)[C@H](O[C@H]1[C@H](OC)[C@H]2OC)O[C@@H]9COC)O[C@@H]8COC)O[C@@H]7COC)O[C@@H]6COC)O[C@@H]5COC)O[C@@H]4COC)O[C@@H]3COC [Octakis(2,3,6-tri-O-methyl)-gamma cyclodextrin] |  |  |  |  | 13 | 11 | 0 |  |  |  |  |  |  |  |  | only a small, non-significant, reduction |
